Patent US20130131075A1, “NEW COMPOUNDS” (Boehringer Ingelheim International GmbH, priority 2009, published 2013)

Target: T1, cynomolgus BK1-receptor (Macaca fascicularis, UniProt Q3BCU0)
T1 construct: expressed in transfected cells; host or cells: CHO cells (homogenate)
T1 sequence (Q3BCU0 1-352): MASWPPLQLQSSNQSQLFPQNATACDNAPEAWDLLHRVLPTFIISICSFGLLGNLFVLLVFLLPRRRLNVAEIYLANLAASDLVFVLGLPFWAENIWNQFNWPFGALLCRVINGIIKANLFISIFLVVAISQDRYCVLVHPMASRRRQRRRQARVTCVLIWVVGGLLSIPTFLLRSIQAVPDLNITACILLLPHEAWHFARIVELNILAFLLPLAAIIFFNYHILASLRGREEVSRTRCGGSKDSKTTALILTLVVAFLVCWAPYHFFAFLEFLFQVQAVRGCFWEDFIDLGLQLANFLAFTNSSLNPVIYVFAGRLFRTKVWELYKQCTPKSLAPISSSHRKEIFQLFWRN
Test: cynoBK1-receptor binding assay
Conditions: CHO cells expressing cynomolgus BK1-receptor, radioligand kallidine (DesArg10,Leu9); for inhibition at 10 µM: at 10 μgmol/L
Experimental: Description of the Method of Binding the cynoBK1-Receptor
CHO cells that express the cynomolgus BK1-receptor are cultivated in “HAM'S F-12 Medium”. The medium is removed from confluent cultures, the cells are washed with PBS buffer, scraped off or detached using Versene and isolated by centrifuging. Then the cells are homogenised in suspension, the homogenate is centrifuged and resuspended. After the protein content has been determined 200 μl of the homogenate (50 to 250 μg protein/assay) are incubated for 60-180 minutes at ambient temperature with 0.5 to 5.0 nM kallidine (DesArg10,Leu9), [3,4-Prolyl-3,43H(N)] and increasing concentrations of the test substance in a total volume of 250 μl. The incubation is stopped by rapid filtration through GF/B glass fibre filters that have been pre-treated with polyethyleneimine (0.3%). The radioactivity bound to the protein is measured with a TopCount NXT. The radioactivity bound in the presence of 1.0 μM kallidine (DesArg10) is defined as non-specific binding. The concentration binding curve may be analysed using computer-aided non-linear curve fitting to determine the corresponding Ki value for the test substance.
Test results of the cynoBK1-receptor binding assay: […]

SMILES	Ki [nM]	inhibition at 10 µM [%]
Cc1ncc(C(=O)N[C@@]2(C(=O)NCc3ncc(Nc4ccc(Cl)cc4C(F)(F)F)cc3Cl)CCOC2)cn1 [(282)]	7.9	–
CNc1ncc(C(=O)N[C@@]2(C(=O)NCc3ccc(Nc4ccc(Cl)cc4C(F)(F)F)cc3)CCOC2)cn1 [(323)]	69	–
O=C(NC1(C(=O)NCc2ccc(Nc3ccccc3C(F)(F)F)cn2)CC[S+]([O-])C1)c1cncnc1 (stereo not drawn) [(194)]	–	95
CC(NC(=O)C1(NC(=O)c2cncnc2)CC1)c1ccc(Nc2ccc(F)cc2C(F)(F)F)cn1 (stereo not drawn) [(45)]	2	104
O=C(N[C@@]1(C(=O)NCc2ncc(Nc3ccc(F)cc3C(F)(F)F)cc2Cl)CCOC1)c1cnc2[nH]cnc2c1 [(220)]	15	–
O=C(NC1(C(=O)NCc2ncc(Nc3c(F)cccc3C(F)(F)F)cc2F)CC1)c1ccnc(O)c1 [(130)]	101	101
O=C(N[C@@]1(C(=O)NCc2ccc(Nc3ccc(F)cc3C(F)(F)F)cc2)CCOC1)c1cnc2cc[nH]c2c1 [(365)]	376	–
Nc1cncc(C(=O)N[C@@]2(C(=O)NCc3ncc(Nc4ccc(Cl)cc4C(F)(F)F)cc3F)CCOC2)c1 [(271)]	17	–
O=C(NC1(C(=O)NCc2ccc(Nc3ccc(Br)cc3Cl)cn2)CC1)c1cncnc1 [(126)]	46	103
COc1ncc(C(=O)N[C@@]2(C(=O)NCc3ncc(Nc4c(F)cccc4C(F)(F)F)cc3Cl)CCOC2)cn1 [(258)]	37	–
O=C(N[C@@]1(C(=O)NCc2ccc(Nc3ccc(F)cc3C(F)(F)F)cc2)CCOC1)c1cncnc1 [(287)]	11	–
N#Cc1ccccc1Nc1ccc(CNC(=O)C2(NC(=O)c3cncnc3)CC2)cc1 [(35)]	70	111
Cc1cc(Nc2ccc(Cl)cc2C(F)(F)F)cnc1CNC(=O)[C@]1(NC(=O)c2cncc(N)c2)CCOC1 [(346)]	48	–
O=C(Cc1cccnc1)N[C@@]1(C(=O)NCc2ccc(Nc3ccccc3C(F)(F)F)cc2)CCOC1 [(104)]	–	54
Cc1cc(Nc2ccc(F)cc2C(F)(F)F)cnc1CNC(=O)[C@]1(NC(=O)c2cncc(N)c2)CCOC1 [(342)]	50	–
Cn1cnc2cc(C(=O)NC3(C(=O)NCc4ccc(Nc5ccc(Cl)cc5C(F)(F)F)cn4)CC3)ccc21 [(264)]	60	–
Cc1cncc(C(=O)NC2(C(=O)NCc3ncc(Nc4c(F)cccc4C(F)(F)F)cc3F)CC2)c1 [(131)]	33	105
O=C1CCC(C(=O)N[C@@]2(C(=O)NCc3ccc(Nc4ccccc4C(F)(F)F)cc3)CCOC2)C1 (stereo partly drawn) [(78)]	–	73
O=C(N[C@@]1(C(=O)NCc2ccc(Nc3ccccc3C(F)(F)F)cc2)CCOC1)c1cnccn1 [(96)]	–	78
Nc1cncc(C(=O)NC2(C(=O)NCc3ncc(Nc4c(F)cccc4C(F)(F)F)cc3F)CC2)c1 [(125)]	12	108

SMILES	Ki [nM]	inhibition at 10 µM [%]
CC(NC(=O)[C@]1(NC(=O)c2cncnc2)CCOC1)c1ccc(Nc2ccc(Br)cc2C(F)(F)F)cn1 (stereo partly drawn) [(188)]	43	92
CNc1ncc(C(=O)N[C@@]2(C(=O)NCc3ncc(Nc4ccc(Cl)cc4C(F)(F)F)cc3F)CCOC2)cn1 [(276)]	17	–
Cn1cnc(C(=O)NC2(C(=O)NCc3ccc(Nc4ccccc4C(F)(F)F)cc3)CC2)c1 [(17)]	–	75
O=C(N[C@@]1(C(=O)NCc2ncc(Nc3ccc(Cl)cc3C(F)(F)F)cc2Cl)CCOC1)c1cncc(O)c1 [(286)]	36	–
Nc1cncc(C(=O)N[C@@]2(C(=O)NCc3ncc(Nc4c(F)cccc4C(F)(F)F)cc3F)CCOC2)c1 [(154)]	89	101
CC(=O)Nc1cncc(C(=O)NC2(C(=O)NCc3ccc(Nc4ccc(Cl)cc4C(F)(F)F)cn3)CC2)c1 [(275)]	405	–
CNc1cncc(C(=O)N[C@@]2(C(=O)NCc3ncc(Nc4ccc(Cl)cc4C(F)(F)F)cc3F)CCOC2)c1 [(319)]	58	–
CN(c1ccc(CNC(=O)C2(NC(=O)c3cncnc3)CC2)cc1)c1ccccc1Cl [(110)]	–	33
COc1ncc(C(=O)NC2(C(=O)NCc3ccc(Nc4ccc(F)cc4C#N)cc3)CC2)cn1 [(182)]	20	99
O=C1CCC(NC(=O)c2cncnc2)(C(=O)NCc2ccc(Nc3ccccc3C(F)(F)F)cn2)C1 (stereo not drawn) [(193)]	–	101
Cc1ncc(C(=O)N[C@@]2(C(=O)NCc3ncc(Nc4ccccc4C(F)(F)F)cc3Cl)CCOC2)cn1 [(292)]	7.2	–
CC(NC(=O)C1(NC(=O)c2cncnc2)CC1)c1ccc(Nc2ccc(Cl)cc2C(F)(F)F)cn1 (stereo not drawn) [(164)]	3.4	106
O=C(N[C@@]1(C(=O)NCc2ccc(Nc3ccccc3C(F)(F)F)cc2)CCOC1)c1cc[nH]n1 [(106)]	–	69
COC1CC(C(=O)N[C@@]2(C(=O)NCc3ccc(Nc4ccccc4C(F)(F)F)cc3)CCOC2)C1 (stereo partly drawn) [(75)]	–	71
O=C(NC1(C(=O)NCc2ncc(Nc3c(F)cccc3C(F)(F)F)cc2F)CC1)c1ccnnc1 [(128)]	84	103
CNc1ncc(C(=O)N[C@@]2(C(=O)NCc3ncc(Nc4ccc(F)cc4C(F)(F)F)cc3Cl)CCOC2)cn1 [(224)]	6.3	–
N#Cc1ccccc1Nc1ccc(CNC(=O)C2(NC(=O)c3cncnc3)CC2)c(F)c1 [(296)]	28	–
O=C(N[C@@]1(C(=O)NCc2ccc(Nc3ccccc3C(F)(F)F)cc2)CCOC1)c1cc(O)cc(O)c1 [(102)]	87	105
O=C(NC1(C(=O)NCc2ccc(Nc3c(F)cccc3C(F)(F)F)cn2)CC1)c1cncnc1 [(44)]	7	109
COc1ncc(C(=O)N[C@@]2(C(=O)NCc3ncc(Nc4ccc(Cl)cc4C(F)(F)F)cc3F)CCOC2)cn1 [(314)]	15	–

Results, then the molecule that gave them:

Ki [nM]	inhibition at 10 µM [%]	SMILES
292	90	Nc1ncc(C(=O)NC2(C(=O)NCc3ccc(Nc4ccc(F)cc4C(F)(F)F)cn3)CC2)o1 [(169)]
72	–	N#Cc1ccc(C(=O)NC2(C(=O)NCc3ccc(Nc4ccc(F)cc4C(F)(F)F)cn3)CC2)cn1 [(256)]
8.4	–	Nc1ccc(C(=O)NC2(C(=O)NCc3ccc(Nc4ccc(F)cc4C(F)(F)F)cn3)CC2)cn1 [(244)]
312	63	O=C(NC1(C(=O)NCc2ccc(Nc3ccc(C(F)(F)F)cc3C(F)(F)F)cn2)CC1)c1cncnc1 [(52)]
17	–	O=C(NC1(C(=O)NCc2ccc(Nc3ccc(Cl)cc3C(F)(F)F)cn2)CC1)c1cncc(O)c1 [(205)]
1.4	–	Nc1ncc(C(=O)NC2(C(=O)NCc3ccc(Nc4ccc(Cl)cc4C(F)(F)F)cn3)CC2)cn1 [(370)]
42	–	Cc1cncc(C(=O)NC2(C(=O)NCc3ccc(Nc4ccc(F)cc4C(F)(F)F)cn3)CC2)c1 [(302)]
485	–	CN(C)c1ccc(C(=O)NC2(C(=O)NCc3ccc(Nc4ccc(Cl)cc4C(F)(F)F)cn3)CC2)cn1 [(263)]
–	99	O=C(NC1(C(=O)NCc2ccc(Nc3ccc(Br)cc3C(F)(F)F)cn2)CC1)c1ccnnc1 [(174)]
182	–	O=C(NC1(C(=O)NCc2ccc(Nc3ccc(Cl)cc3C(F)(F)F)cn2)CC1)c1ccc(O)nc1 [(239)]
1.9	–	Cc1ncc(C(=O)NC2(C(=O)NCc3ncc(Nc4ccc(F)cc4C(F)(F)F)cc3C)CC2)cn1 [(344)]
3.7	–	Nc1cncc(C(=O)NC2(C(=O)NCc3ncc(Nc4ccc(F)cc4C(F)(F)F)cc3Cl)CC2)c1 [(218)]
59	–	O=C(NC1(C(=O)NCc2ccc(Nc3ccc(Cl)cc3C(F)(F)F)cn2)CC1)c1cncc(Cl)c1 [(352)]
97	–	CNc1cc(C(=O)NC2(C(=O)NCc3ccc(Nc4ccc(F)cc4C(F)(F)F)cn3)CC2)cnn1 [(227)]
6.1	–	CCc1ncc(C(=O)NC2(C(=O)NCc3ccc(Nc4ccc(Cl)cc4C(F)(F)F)cn3)CC2)cn1 [(371)]
3.3	108	O=C(NC1(C(=O)NCc2ccc(Nc3ccc(Cl)cc3C(F)(F)F)cn2)CC1)c1cncnc1 [(55)]
6.8	–	O=C(NC1(C(=O)NCc2ccc(Nc3ccc(Cl)cc3C(F)(F)F)cn2)CC1)c1cc(O)nc(O)n1 [(208)]
18	–	CC(C)c1ncc(C(=O)NC2(C(=O)NCc3ccc(Nc4ccc(F)cc4C(F)(F)F)cn3)CC2)cn1 [(245)]
–	100	O=C(NC1(C(=O)NCc2ccc(Nc3ccc(Cl)cc3C(F)(F)F)cn2)CC1)c1cncs1 [(149)]
45	–	O=C(CC(F)(F)F)NC1(C(=O)NCc2ccc(Nc3ccc(Cl)cc3C(F)(F)F)cn2)CC1 [(363)]
1.3	–	Cc1ncc(C(=O)NC2(C(=O)NCc3ccc(Nc4ccc(F)cc4C(F)(F)F)cc3F)CC2)cn1 [(283)]
54	–	Cc1ncc(C(=O)N[C@@]2(C(=O)NCc3ccc(Nc4ccc(F)cc4C(F)(F)F)cn3)CCOC2)cn1 [(307)]
